Source: ChEMBL document CHEMBL1136432, “Discovery of potent imidazole and cyanophenyl containing farnesyltransferase inhibitors with improved oral bioavailability” (Bioorg Med Chem Lett, 2003)

What was measured:
[1] = Pharmacokinetic (PK) property (Cmax) was determined in dog at the single dose of 1 mg/kg; type: ADME, organism-based, Canis lupus familiaris; set-up: dose 1 mg/kg; conditions: in vivo
NIH3T3 = experiment: Concentration needed to reduce 50% of farnesylation in NIH3T3 H-ras cell line; type: functional, cell-based; conditions: Mus musculus
[2] = Half life in dog at the single oral dose of 1 mg/kg; type: ADME, organism-based, Canis lupus familiaris; set-up: dose 1 mg/kg, route oral; conditions: in vivo
[3] = target: T1, Protein farnesyltransferase (Bos taurus, UniProt P29702+P49355); experiment: Inhibition of transfer of [3H]FPP to biotin K-ras peptide (KKSKTKCVIM) catalyzed by bovine FTase; type: protein-complex assay
[4] = Pharmacokinetic (PK) property (AUC) was determined in dog at the single oral dose of 1 mg/kg; type: ADME, organism-based, Canis lupus familiaris; set-up: dose 1 mg/kg, route oral; conditions: in vivo
[5] = Pharmacokinetic (PK) property (Tmax) was determined in dog at the single dose of 1 mg/kg; type: ADME, organism-based, Canis lupus familiaris; set-up: dose 1 mg/kg; conditions: in vivo
[6] = target: Geranylgeranyl transferase type I (Bos taurus, UniProt P29702+Q5EAD5); experiment: Inhibition of [3H]FPP transfer to biotin K-ras peptide (KKSKTKCVLL) catalyzed by bovine GGTase-I
[7] = target: T1, Protein farnesyltransferase; experiment: Inhibition of [3H]FPP transfer to biotin K-ras peptide (KKSKTKCVIM) by bovine FTase; type: protein-complex assay
[8] = Oral bioavailability in monkey; conditions: cercopithecidae, in vivo
in vivo = conditions: dog, po, 5 mg/kg
Description: Oral bioavailability in dog (dose 5 mg/kg)

IC50 [3] [nM]	SMILES	EC50 (NIH3T3) [nM]	further results
0.18	Cn1cncc1C(OCc1ccc(C#N)nc1-c1ccc2c(c1)OC(F)(F)O2)c1ccc(C#N)cc1 (stereo unspecified)	1.2	Cmax [1]: 260 ng/mL; half-life [2]: 7.6 h; AUC [4]: 2800 ng·h/mL; Tmax [5]: 1 h
0.71	Cn1cncc1C(OCc1ccc(C#N)nc1-c1cc(F)cc(F)c1)c1ccc(C#N)cc1 (stereo unspecified)	2.2	–
0.62	COc1cccc(-c2cc(C#N)ccc2COC(c2ccc(C#N)cc2)c2cncn2C)c1 (stereo unspecified)	1.2	–
0.43	Cn1cncc1C(OCc1ccc(C#N)cn1)c1ccc(C#N)c(-c2cccc3ccccc23)c1 (stereo unspecified)	6	–
–	Cn1cncc1C(OCc1nc(N2CCN(C(=O)OC(C)(C)C)CC2)c(C#N)cc1-c1cccc(Cl)c1)c1ccc(C#N)cc1 (stereo unspecified)	4.5	–
0.92	Cn1cncc1C(OCc1ncc(C#N)cc1-c1cccc(Cl)c1)c1ccc(C#N)cc1 (stereo unspecified)	10	–
1.7	Cn1cncc1C(OCc1ccc(C#N)cc1-c1cccc2ccccc12)c1ccc(C#N)nc1 (stereo unspecified)	46	–
0.82	Cn1cncc1C(OCc1ccc(C#N)nc1-c1cccc(Cl)c1)c1ccc(C#N)cc1 (stereo unspecified)	1.8	–
0.51	Cn1cncc1C(OCc1nc(N2CCC(O)CC2)c(C#N)cc1-c1cccc(Cl)c1)c1ccc(C#N)cc1 (stereo unspecified)	3.6	–
0.16	Cn1cncc1C(OCc1ccc(C#N)nc1-c1ccc2ccccc2c1)c1ccc(C#N)cc1 (stereo unspecified)	7.4	–
12	Cn1cncc1C(OCc1ccc(C#N)c(-c2cccc(Cl)c2)n1)c1ccc(C#N)cc1 (stereo unspecified)	–	–
0.4	Cn1cncc1C(OCc1ccc(C#N)cc1-c1cccc(OC(F)(F)F)c1)c1ccc(C#N)nc1 (stereo unspecified)	24	–
–	Cn1cncc1C(OCc1ccc(C#N)cc1)c1ccc(C#N)c(-c2cccc3ccccc23)c1 (stereo unspecified)	110	IC50 [6]: 18 nM; IC50 [7]: 0.2 nM
0.57	CN1CCN(c2nc(COC(c3ccc(C#N)cc3)c3cncn3C)c(-c3cccc(Cl)c3)cc2C#N)CC1 (stereo unspecified)	2	–
2	Cn1cncc1C(OCc1ccc(C#N)cc1-c1cc(F)cc(F)c1)c1ccc(C#N)nc1 (stereo unspecified)	25	–
2	Cn1cncc1C(OCc1ccc(C#N)cc1)c1ccc(C#N)c(-c2cccc3cccnc23)c1 (stereo unspecified)	3.7	bioavailability [8]: 92%; bioavailability (in vivo): 53%
58	CN1CCN(c2nc(COC(c3ccc(C#N)cc3)c3cncn3C)ccc2C#N)CC1 (stereo unspecified)	–	–
1	Cn1cncc1C(OCc1ccc(C#N)cc1-c1ccc(F)c(Cl)c1)c1ccc(C#N)nc1 (stereo unspecified)	46	–

IC50 [3] [nM]	SMILES	EC50 (NIH3T3) [nM]	further results
–	Cn1cncc1C(OCc1nc(Cl)c(C#N)cc1-c1cccc(Cl)c1)c1ccc(C#N)cc1 (stereo unspecified)	29	–
1.8	Cn1cncc1C(OCc1cnc(C#N)cc1-c1cccc(Cl)c1)c1ccc(C#N)cc1 (stereo unspecified)	17	–
0.98	CC(=O)N1CCN(c2nc(COC(c3ccc(C#N)cc3)c3cncn3C)c(-c3cccc(Cl)c3)cc2C#N)CC1 (stereo unspecified)	0.4	–
25	Cn1cncc1C(OCc1ccc(C#N)c(-c2ccc(Cl)cc2)n1)c1ccc(C#N)cc1 (stereo unspecified)	–	–
0.84	Cn1cncc1C(OCc1ccc(C#N)cc1-c1ccc2c(c1)OCO2)c1ccc(C#N)nc1 (stereo unspecified)	3.5	–
0.25	Cn1cncc1C(OCc1nc(N2CCOCC2)c(C#N)cc1-c1cccc(Cl)c1)c1ccc(C#N)cc1 (stereo unspecified)	1.2	–
0.18	Cn1cncc1C(OCc1ccc(C#N)nc1-c1cccc(OC(F)(F)F)c1)c1ccc(C#N)cc1 (stereo unspecified)	2	–
0.73	Cn1cncc1C(OCc1nc(N2CCC(C(N)=O)CC2)c(C#N)cc1-c1cccc(Cl)c1)c1ccc(C#N)cc1 (stereo unspecified)	1.5	–
0.51	Cn1cncc1C(OCc1ccc(C#N)nc1-c1ccc(OC(F)(F)F)cc1)c1ccc(C#N)cc1 (stereo unspecified)	4	–
8.2	Cn1cncc1C(OCc1ccc(C#N)c(-c2ccc3ccccc3c2)n1)c1ccc(C#N)cc1 (stereo unspecified)	–	–
1.9	Cn1cncc1C(OCc1ccc(C#N)nc1N1CCOCC1)c1ccc(C#N)cc1 (stereo unspecified)	88	–
3.9	Cn1cncc1C(OCc1ccc(C#N)nc1-c1ccccc1)c1ccc(C#N)cc1 (stereo unspecified)	19	–
44	Cn1cncc1C(OCc1ccc(C#N)nc1N1CCN(C(=O)OC(C)(C)C)CC1)c1ccc(C#N)cc1 (stereo unspecified)	–	–
0.45	Cn1cncc1C(OCc1ccc(C#N)nc1-c1cc(Cl)cc(Cl)c1)c1ccc(C#N)cc1 (stereo unspecified)	6	–
68	Cn1cncc1C(OCc1ccc(C#N)c(-c2cccc(C#N)c2)n1)c1ccc(C#N)cc1 (stereo unspecified)	–	–
0.88	COc1cccc(-c2cc(C#N)ccc2COC(c2ccc(C#N)nc2)c2cncn2C)c1 (stereo unspecified)	20	–
0.64	Cn1cncc1C(OCc1ccc(C#N)cc1-c1cc(Cl)cc(Cl)c1)c1ccc(C#N)nc1 (stereo unspecified)	3.5	–
0.75	Cn1cncc1C(OCc1ccc(C#N)cc1-c1cccc(Cl)c1)c1ccc(C#N)nc1 (stereo unspecified)	2.1	–
